{
  "source": "patent US11505548B2",
  "about": "“Heterocyclic compounds and their use for treatment of helminthic infections and diseases” (Celgene Corporation, priority 2019, dated 2022)",
  "system": "microfilariae of Dirofilaria immitis",
  "test": "Dirofilaria immitis, Microfilaria (DiMF) Assay",
  "assay_type": "cell-based",
  "settings": "read-out: D. immitis activity level (IC50 or MED)",
  "protocol": "Heartworm Screen Dirofilaria immitis (D. immitis)\nDirofilaria immitis, Microfilaria (DiMF) Assay.\nCompounds were dissolved and serially diluted in DMSO. Aliquots were spotted to the empty wells of assay plates. Media and microfilariae of Dirofilaria immitis were added to each well to dilute the test compounds to the desired concentrations. Assay plates were incubated for approximately 72 hours, and the larvae in each well were observed microscopically for drug effect. Microfilariae in each well were assessed subjectively for survival or paralysis, and results were reported as Minimum Effective Dose (MED).\nActive and selective (DiL4 vs. DiMF potency) example compounds were subsequently evaluated in heartworm positive dog studies to correlate the in vitro selectivity profile with in vivo effects on circulating microfilariae.",
  "data": [
    {"smiles": "Cc1cccnc1Nc1nc(-c2cc(C#N)c(OC(C)C)cn2)ns1", "note": "[Compound 200, 5-isopropoxy-2-(5-(3-methylpyridin-2-ylamino)-1,2,4-thiadiazol-3-yl)isonicotino-nitrile]", "values": [
      {"measurement": "IC50", "result": "200 to 500", "unit": "nM"}
    ]},
    {"smiles": "CC(C)c1ccnc(-c2nsc(Nc3ncccc3C(F)(F)F)n2)c1", "note": "[Compound 67, 3-(4-isopropyl-pyridin-2-yl)-N-(3-(trifluoromethyl)pyridin-2-yl)-1,2,4-thiadiazol-5-amine]", "values": [
      {"measurement": "IC50", "result": "< 200", "unit": "nM"}
    ]},
    {"smiles": "CC(=O)N(C)c1cccnc1Nc1nc(-c2cc(C)ccn2)ns1", "note": "[Compound 208, N-methyl-N-(2-(3-(4-methylpyridin-2-yl)-1,2,4-thiadiazol-5-ylamino)pyridin-3-yl)acetamide]", "values": [
      {"measurement": "IC50", "result": "500 to 5000", "unit": "nM"}
    ]},
    {"smiles": "Cc1cccnc1Nc1nc(-c2cc(C(F)(F)F)c(OC3CC3)cn2)ns1", "note": "[Compound 102, 3-(5-cyclo-propoxy-4-(trifluoromethyl)pyridin-2-yl)-N-(3-methyl-pyridin-2-yl)-1,2,4-thiadiazol-5-amine]", "values": [
      {"measurement": "IC50", "result": "200 to 500", "unit": "nM"}
    ]},
    {"smiles": "O=C(NC1CC(F)(F)C1)c1ccc(Nc2nc(-c3ccc(OC4CC4)cn3)ns2)nc1", "note": "[Compound 107, 6-(3-(5-cyclo-propoxypyridin-2-yl)-1,2,4-thiadiazol-5-ylamino)-N-(3,3-difluoro-cyclobutyl) nicotinamide]", "values": [
      {"measurement": "IC50", "result": "500 to 5000", "unit": "nM"}
    ]},
    {"smiles": "Cc1cccnc1Nc1nc(-c2cnc(OC(C)C)cn2)ns1", "note": "[Compound 124, 3-(5-isopropoxy-pyrazin-2-yl)-N-(3-methyl-pyridin-2-yl)-1,2,4-thiadiazol-5-amine]", "values": [
      {"measurement": "IC50", "result": "500 to 5000", "unit": "nM"}
    ]},
    {"smiles": "CC(C)Oc1ccc(-c2n[nH]c(Nc3ncccc3C(F)(F)F)n2)nc1", "note": "[Compound 70, N-(3-(5-isopropoxy-pyridin-2-yl)-1H-1,2,4-triazol-5-yl)-3-(trifluoromethyl) pyridin-2-amine]", "values": [
      {"measurement": "IC50", "result": "500 to 5000", "unit": "nM"}
    ]},
    {"smiles": "CC(C)Oc1cnc(-c2nsc(Nc3ncccc3C(=O)N(C)C)n2)cc1C(F)F", "note": "[Compound 260, 2-(3-(4-(difluoro-methyl)-5-isopropoxy-pyridin-2-yl)-1,2,4-thiadiazol-5-ylamino)-N,N-dimethyl-nicotinamide]", "values": [
      {"measurement": "IC50", "result": "200 to 500", "unit": "nM"}
    ]},
    {"smiles": "CN1CCC(Oc2ccnc(-c3nsc(Nc4ncccc4C(F)(F)F)n3)c2)CC1", "note": "[Compound 62, 3-(4-(1-methyl-piperidin-4-yloxy)pyridin-2-yl)-N-(3-(trifluoromethyl)pyridin-2-yl)-1,2,4-thiadiazol-5-amine]", "values": [
      {"measurement": "IC50", "result": "500 to 5000", "unit": "nM"}
    ]},
    {"smiles": "c1ccc(-c2nsc(Nc3ccc(N4CCCC4)cn3)n2)nc1", "note": "[Cmpd 8, 3-(pyridin-2-yl)-N-(5-(pyrrolidin-1-yl)pyridin-2-yl)-1,2,4-thiadiazol-5-amine]", "values": [
      {"measurement": "IC50", "result": "500 to 5000", "unit": "nM"}
    ]},
    {"smiles": "CC(=O)N(C)c1cccnc1Nc1nc(-c2cc(C(F)(F)F)c(OC(C)C)cn2)ns1", "note": "[Compound 187, N-(2-(3-(5-isopropoxy-4-(trifluoro-methyl)pyridin-2-yl)-1,2,4-thiadiazol-5-ylamino)pyridin-3-yl)-N-methylacetamide]", "values": [
      {"measurement": "IC50", "result": "200 to 500", "unit": "nM"}
    ]},
    {"smiles": "Cc1cccnc1Nc1nc(-c2ccc(OC(C)C)cn2)ns1", "note": "[Compound 19, 3-(5-isopropoxy-pyridin-2-yl)-N-(3-methyl-pyridin-2-yl)-1,2,4-thiadiazol-5-amine]", "values": [
      {"measurement": "IC50", "result": "< 200", "unit": "nM"}
    ]},
    {"smiles": "Cc1cccnc1Nc1nc(-c2cc(C#N)ccn2)ns1", "note": "[Compound 40, 2-(5-(3-methyl-pyridin-2-ylamino)-1,2,4-thiadiazol-3-yl)isonicotino-nitrile]", "values": [
      {"measurement": "IC50", "result": "500 to 5000", "unit": "nM"}
    ]},
    {"smiles": "Cc1cccnc1Nc1nc(-c2ccc(OC3CCOCC3)cn2)ns1", "note": "[Compound 15, N-(3-methyl-pyridin-2-yl)-3-(5-(tetrahydro-2H-pyran-4-yloxy)pyridin-2-yl)-1,2,4-thiadiazol-5-amine]", "values": [
      {"measurement": "IC50", "result": "500 to 5000", "unit": "nM"}
    ]},
    {"smiles": "Cc1ccnc(-c2noc(Nc3ncccc3F)n2)c1", "note": "[Compound 14, N-(3-fluoro-pyridin-2-yl)-3-(4-methylpyridin-2-yl)-1,2,4-oxadiazol-5-amine]", "values": [
      {"measurement": "IC50", "result": "500 to 5000", "unit": "nM"}
    ]},
    {"smiles": "COc1cnc(Nc2nc(-c3cc(C(=O)N(C)C)c(OC(C)C)cn3)ns2)c(C(F)(F)F)c1", "note": "[Compound 264, 5-isopropoxy-2-(5-(5-methoxy-3-(trifluoro-methyl)pyridin-2-ylamino)-1,2,4-thiadiazol-3-yl)-N,N-dimethyliso-nicotinamide]", "values": [
      {"measurement": "IC50", "result": "200 to 500", "unit": "nM"}
    ]},
    {"smiles": "CC(=O)N(c1cccnc1Nc1nc(-c2ccc(OC(C)C)cn2)ns1)C(C)C", "note": "[Compound 205, N-(2-(3-(5-isopropoxy-pyridin-2-yl)-1,2,4-thiadiazol-5-ylamino)pyridin-3-yl)-N-isopropy-lacetamide]", "values": [
      {"measurement": "IC50", "result": "500 to 5000", "unit": "nM"}
    ]},
    {"smiles": "Cc1cccnc1Nc1nc(-c2ccc(OCC3CC3)cn2)ns1", "note": "[Compound 73, 3-(5-(cyclopropyl-methoxy)pyridin-2-yl)-N-(3-methylpyridin-2-yl)-1,2,4-thiadiazol-5-amine]", "values": [
      {"measurement": "IC50", "result": "200 to 500", "unit": "nM"}
    ]},
    {"smiles": "Cc1cccnc1Nc1nc(-c2cc(OC3CC3)ccn2)ns1", "note": "[Compound 65, 3-(4-cycloprop-oxypyridin-2-yl)-N-(3-methyl-pyridin-2-yl)-1,2,4-thiadiazol-5-amine]", "values": [
      {"measurement": "IC50", "result": "< 200", "unit": "nM"}
    ]},
    {"smiles": "CC(=O)N(C)c1cc(C(F)(F)F)cnc1Nc1nc(-c2cc(C(F)(F)F)c(OC(C)C)cn2)ns1", "note": "[Compound 268, N-(2-(3-(5-isopropoxy-4-(trifluoromethyl)pyridin-2-yl)-1,2,4-thiadiazol-5-ylamino)-5-(trifluoromethyl)pyridin-3-yl)-N-methylacetamide]", "values": [
      {"measurement": "IC50", "result": "< 200", "unit": "nM"}
    ]},
    {"smiles": "COc1cccnc1-c1nsc(Nc2cc(C(F)(F)F)c(C(C)C)cn2)n1", "note": "[Compound 210, N-(5-isopropyl-4-(trifluoromethyl)pyridin-2-yl)-3-(3-methoxy-pyridin-2-yl)-1,2,4-thiadiazol-5-amine]", "values": [
      {"measurement": "IC50", "result": "200 to 500", "unit": "nM"}
    ]},
    {"smiles": "CC(C)Oc1ccc(-c2nsc(Nc3ncccc3C(C)C)n2)nc1", "note": "[Compound 115, 3-(5-isopropoxy-pyridin-2-yl)-N-(3-isopropyl-pyridin-2-yl)-1,2,4-thiadiazol-5-amine]", "values": [
      {"measurement": "IC50", "result": "< 200", "unit": "nM"}
    ]},
    {"smiles": "CC(C)Oc1ccc(-c2nsc(Nc3ncccc3N(C)C(=O)C3CCCC3)n2)nc1", "note": "[Compound 172, N-(2-(3-(5-isopropoxy-pyridin-2-yl)-1,2,4-thiadiazol-5-ylamino)pyridin-3-yl)-N-methylcyclo-pentane-carboxamide]", "values": [
      {"measurement": "IC50", "result": "200 to 500", "unit": "nM"}
    ]},
    {"smiles": "Cc1cnc(Nc2nc(-c3cc(C(N)=O)c(OC(C)C)cn3)ns2)c(C(F)(F)F)c1", "note": "[Compound 252, 5-isopropoxy-2-(5-(5-methyl-3-(trifluoro-methyl)pyridin-2-ylamino)-1,2,4-thiadiazol-3-yl)isonico-tinamide]", "values": [
      {"measurement": "IC50", "result": "500 to 5000", "unit": "nM"}
    ]},
    {"smiles": "COc1ccnc(-c2nsc(Nc3cc(C(F)(F)F)c(C(C)C)cn3)n2)c1", "note": "[Compound 182, N-(5-iso-propyl-4-(trifluoro-methyl)pyridin-2-yl)-3-(4-methoxy-pyridin-2-yl)-1,2,4-thiadiazol-5-amine]", "values": [
      {"measurement": "IC50", "result": "< 200", "unit": "nM"}
    ]},
    {"smiles": "CC(C)Oc1cnc(-c2nsc(Nc3ncccc3C(C)C)n2)cc1C#N", "note": "[Compound 201, 5-isopropoxy-2-(5-(3-isopropyl-pyridin-2-ylamino)-1,2,4-thiadiazol-3-yl)isonicotino-nitrile]", "values": [
      {"measurement": "IC50", "result": "< 200", "unit": "nM"}
    ]},
    {"smiles": "Cc1cc(C#N)cnc1Nc1nc(-c2ccc(OC(C)C)cn2)ns1", "note": "[Compound 231, 6-(3-(5-isoprop-oxypyridin-2-yl)-1,2,4-thiadiazol-5-ylamino)-5-methyl-nicotinonitrile]", "values": [
      {"measurement": "IC50", "result": "200 to 500", "unit": "nM"}
    ]},
    {"smiles": "CCOc1cnc(-c2nsc(Nc3ncccc3N(C)C(C)=O)n2)cc1C(F)(F)F", "note": "[Compound 228, N-(2-(3-(5-ethoxy-4-(trifluoro-methyl)pyridin-2-yl)-1,2,4-thiadiazol-5-ylamino)pyridin-3-yl)-N-methyl-acetamide]", "values": [
      {"measurement": "IC50", "result": "500 to 5000", "unit": "nM"}
    ]},
    {"smiles": "CC(C)Oc1ccc(-c2nsc(Nc3ncccc3C(=O)N(C)C3CC3)n2)nc1", "note": "[Compound 262, N-cyclo-propyl-2-(3-(5-isopropoxy-pyridin-2-yl)-1,2,4-thiadiazol-5-ylamino)-N-methyl-nicotinamide]", "values": [
      {"measurement": "IC50", "result": "200 to 500", "unit": "nM"}
    ]},
    {"smiles": "CC(C)Oc1ccc(-c2nsc(Nc3ncccc3C3CC3)n2)nc1", "note": "[Compound 76, N-(3-cyclopropyl-pyridin-2-yl)-3-(5-isopropoxy-pyridin-2-yl)-1,2,4-thiadiazol-5-amine]", "values": [
      {"measurement": "IC50", "result": "< 200", "unit": "nM"}
    ]},
    {"smiles": "COc1cccnc1Nc1nc(-c2cc(C(F)(F)F)c(OC(C)C)cn2)ns1", "note": "[Compound 167, 3-(5-isopropoxy-4-(trifluoromethyl)pyridin-2-yl)-N-(3-methoxypyridin-2-yl)-1,2,4-thiadiazol-5-amine]", "values": [
      {"measurement": "IC50", "result": "500 to 5000", "unit": "nM"}
    ]},
    {"smiles": "Cc1cccnc1-c1nsc(Nc2ccc(N3CCCC3)cn2)n1", "note": "[Compound 51, 3-(3-methyl-pyridin-2-yl)-N-(5-(pyrrolidin-1-yl)pyridin-2-yl)-1,2,4-thiadiazol-5-amine]", "values": [
      {"measurement": "IC50", "result": "500 to 5000", "unit": "nM"}
    ]},
    {"smiles": "CC(=O)N(C)c1cc(C(F)(F)F)cnc1Nc1nc(-c2cc3c(cn2)N(C(C)C)CC3)ns1", "note": "[Compound 273, N-(2-(3-(1-isopropyl-2,3-dihydro-1H-pyrrolo[2,3-c]pyridin-5-yl)-1,2,4-thiadiazol-5-ylamino)-5-(trifluoromethyl)pyridin-3-yl)-N-methylacetamide]", "values": [
      {"measurement": "IC50", "result": "< 200", "unit": "nM"}
    ]},
    {"smiles": "CC(=O)N(C)c1cccnc1Nc1nc(-c2cc(C(F)F)c(OC(C)C)cn2)ns1", "note": "[Compound 261, N-(2-(3-(4-(difluoromethyl)-5-isopropoxy-pyridin-2-yl)-1,2,4-thiadiazol-5-ylamino)pyridin-3-yl)-N-methylacetamide]", "values": [
      {"measurement": "IC50", "result": "200 to 500", "unit": "nM"}
    ]},
    {"smiles": "CN(C)c1cccnc1Nc1nc(-c2ccc(OC3CC3)cn2)ns1", "note": "[Compound 78, N2-(3-(5-cyclopropoxy-pyridin-2-yl)-1,2,4-thiadiazol-5-yl)-N3,N3-dimethyl-pyridine-2,3-diamine]", "values": [
      {"measurement": "IC50", "result": "500 to 5000", "unit": "nM"}
    ]},
    {"smiles": "CC(C)Oc1ccc(-c2nsc(Nc3ncccc3C(=O)N3CCCC3)n2)nc1", "note": "[Compound 190, (2-(3-(5-isoprop-oxypyridin-2-yl)-1,2,4-thiadiazol-5-ylamino)pyridin-3-yl) (pyrrolidin-1-yl) methanone]", "values": [
      {"measurement": "IC50", "result": "500 to 5000", "unit": "nM"}
    ]},
    {"smiles": "CN1CCC(Oc2ccc(-c3nsc(Nc4ncccc4C(F)(F)F)n3)nc2)CC1", "note": "[Compound 55, 3-(5-(1-methyl-piperidin-4-yloxy)pyridin-2-yl)-N-(3-(trifluoromethyl)pyridin-2-yl)-1,2,4-thiadiazol-5-amine]", "values": [
      {"measurement": "IC50", "result": "500 to 5000", "unit": "nM"}
    ]}
  ]
}
